We go through two compounds from EPA's ToxValDB 9.5 (doi:10.2903/j.efsa.2007.106r).

In brackets after ≈: the same amount, converted by molar mass. Several values for one entry are separate records, joined by “and”; a condition that tells them apart may be missing. Equal entries are not always repeated.

One data set relates to Rattus norvegicus. The note with it: for LD50: acute, oral, mortality.
The test system of the next data set is Anas platyrhynchos. The conditions noted are these: for NOEL / NOEC: reproductive.
The next data set deals with Colinus virginianus. The conditions noted are these: for NOEL / NOEC: reproduction developmental.
Another data set deals with Canidae. The note with it: chronic; duration: 1 years; Dog Other; clinical chemistry.
Another data set deals with Folsomia candida. The conditions noted are these: chronic/long-term.
Another data set concerns Daphnia magna. The conditions noted are these: chronic/long-term.
In another data set the test system is Mus musculus. The conditions noted are these: acute, oral, mortality.
The subject of another data set is Apis mellifera. The conditions noted are these: acute, mortality.
Another data set has as its system Bibionidae. The note with it: chronic/long-term.
For a further data set, the system named is Typhlodromus pyri. The data set can be described thus: LR50; higher = less toxic. The note with it: not reported; mortality.
For a further data set, the system named is Aphidius rhopalosiphi. The data set can be described thus: LR50; higher = less toxic. The conditions noted are these: chronic/long-term; mortality.
The mark [1] stands for this setting: acute, duration: 5 days, oral, diet, mortality.

As usually defined, the NOAEL is the highest dose or exposure tested at which no adverse effect was seen. Turning to `OC(Cc1ccccc1Cl)(Cn1cncn1)C1(Cl)CC1` (stereo not drawn), the NOAEL in the data set with Rattus norvegicus (chronic, organ weight) was 1.1 mg/kg-day; with Rattus norvegicus (developmental, development), 1 mg/kg-day. Also, the NOEL with Anas platyrhynchos (duration: 20 weeks, oral, feed) worked out at 63 mg/kg-day; in the data set on Colinus virginianus (duration: 20 weeks, oral, diet), 14.8 mg/kg-day. The LD50 was greater than 297 mg/kg-day in the data set on Colinus virginianus (acute, oral, diet, mortality) and greater than 2000 mg/kg in the data set with Colinus virginianus (acute, oral, mortality).
For the compound `OC(Cc1ccccc1Cl)(Cn1[nH]cnc1=S)C1(Cl)CC1` (stereo not drawn) [Prothioconazole], the LD50 in the data set with Rattus norvegicus (F) was 2510 mg/kg-day; in the data set with Rattus norvegicus (M/F), greater than 6200 mg/kg-day; in the data set on Rattus norvegicus (M) it was 2810 mg/kg-day; in the data set on Anas platyrhynchos (short-term, duration: 5 days, oral, feed, mortality), greater than 2460 mg/kg-day; in the data set on Colinus virginianus (setting [1]) it was greater than 1410 mg/kg-day; with Colinus virginianus (acute, oral, mortality), greater than 2000 mg/kg. Also, the LD50 was 3460 mg/kg in the data set with Mus musculus (F); 2240 mg/kg-day in the data set with Mus musculus (M); greater than 200 µg/piece in the data set on Apis mellifera (dermal); greater than 71 µg/piece in the data set on Apis mellifera (oral, unspecified). Moreover, the NOAEL in the data set on Rattus norvegicus (chronic, duration: 2 years, organ weight) stood at 5 mg/kg-day; in the data set on Rattus norvegicus (developmental, development) it was 20 mg/kg-day; with Canidae it was 5 mg/kg-day. The LC50 is 1.83 µg/mL (≈ 5.32 µM) with Oncorhynchus mykiss (acute, mortality); greater than 1000 mg/kg with Tagia sp. (acute, mortality); greater than 5000 mg/kg with Anas platyrhynchos (short-term, duration: 5 days, oral, feed, reproduction); > 5000 mg/kg and 4090 mg/kg with Colinus virginianus (setting [1]). Moreover, the NOEC with Oncorhynchus mykiss (chronic/long-term, other) is 0.308 mg/L; in the data set on Tagia sp. (chronic/long-term), 1.33 mg/kg; with Folsomia candida, 64 mg/kg; in the data set on Daphnia magna it was 0.56 mg/L; in the data set on Anas platyrhynchos (duration: 20 weeks), no less than 500 mg/kg; with Anas platyrhynchos (duration: 21 weeks), 700 mg/kg. Moreover, the NOEC with Colinus virginianus (duration: 20 weeks) is 173 mg/kg-day; in the data set with Colinus virginianus (duration: 22 weeks), no less than 1000 mg/kg-day; with Bibionidae, 9.14 mg/L. For the same compound, the NOEL was 63 mg/kg-day with Anas platyrhynchos (duration: 20 weeks), 78 mg/kg-day in the data set on Anas platyrhynchos (duration: 21 weeks), 14.8 mg/kg-day with Colinus virginianus (duration: 20 weeks) and no less than 86 mg/kg-day in the data set with Colinus virginianus (duration: 22 weeks). Moreover, the figures for the LR50 in the data set with Typhlodromus pyri and in the data set with Aphidius rhopalosiphi were 18.7 g/ha and 140 g/ha, respectively.
